The values below come from PMC3314994, “Inhibitors of human histone deacetylase with potent activity against the African trypanosome Trypanosoma brucei” (Bioorganic & Medicinal Chemistry Letters, 2012).

As usually defined, the IC90 is the concentration at which the effect reaches the 90% level.

Experiment [1] deals with DAC3. On the set-up: method as in PMID 20624217. As to conditions: cited from earlier work.
Experiment [2] relates to DAC1. Further details: method as in PMID 20624217. As to conditions: cited from earlier work.
Experiment [3] relates to Trypanosoma brucei (BSF). Further details: method as in PMID 14726511. As to conditions: cited from earlier work.
Experiment [4] concerns the target T1, rhHDAC 8 (Homo sapiens, UniProt Q9BY41).
T1 sequence (Q9BY41 1-377): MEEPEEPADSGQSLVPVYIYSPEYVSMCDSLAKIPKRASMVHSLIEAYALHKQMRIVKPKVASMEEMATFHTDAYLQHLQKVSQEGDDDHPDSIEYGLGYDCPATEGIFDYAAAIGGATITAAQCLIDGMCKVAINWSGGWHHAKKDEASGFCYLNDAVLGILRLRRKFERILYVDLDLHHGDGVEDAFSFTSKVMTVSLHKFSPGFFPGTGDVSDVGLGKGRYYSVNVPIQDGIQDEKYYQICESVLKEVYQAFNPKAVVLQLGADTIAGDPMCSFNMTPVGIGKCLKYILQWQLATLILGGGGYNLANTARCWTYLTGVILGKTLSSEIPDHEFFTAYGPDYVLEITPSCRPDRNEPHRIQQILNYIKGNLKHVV
Nature of the experiment: Inhibition of recombinant human HDAC isoforms. The format is biochemical. The settings on record: mean ± SD, triplicate per plate, min two plates; read-out: ED50 rhHDAC 8. An excerpt: (§1) The compounds from the different structural subclasses were all active as HDAC inhibitors, measured in an assay of enzymes in HeLa cell lysates.[23,24] HeLa cells express multiple HDACs, including HDAC 1, 2, 3, 4, and 8.[25–27] […] To further characterise the compounds with respect to HDAC selectivity, we determined their inhibitory properties against recombinant expressed human HDACs (rhHDAC 1–4, 6–9).[28]

For experiment [5], the target named is rhHDAC 1 (Homo sapiens, UniProt Q13547). Description: Inhibition of recombinant human HDAC isoforms. The format is biochemical. The settings on record: mean ± SD, triplicate per plate, min two plates; read-out: ED50 rhHDAC 1.
Source text: as §1

For experiment [6], the target named is rhHDAC 4 (Homo sapiens, UniProt P56524). Nature of the experiment: Inhibition of recombinant human HDAC isoforms. The format is biochemical. As to conditions: mean ± SD, triplicate per plate, min two plates; read-out: ED50 rhHDAC 4.
Source text: as §1

The target in experiment [7] is rhHDAC 3 (Homo sapiens, UniProt O15379). Nature of the experiment: Inhibition of recombinant human HDAC isoforms. The settings on record: mean ± SD, triplicate per plate, min two plates; read-out: ED50 rhHDAC 3. The format is biochemical.
Source text: as §1

Experiment [8] concerns the target rhHDAC 2 (Homo sapiens, UniProt Q92769). Description: Inhibition of recombinant human HDAC isoforms. The format is biochemical. As to conditions: mean ± SD, triplicate per plate, min two plates; read-out: ED50 rhHDAC 2.
Source text: as §1

Experiment [9] deals with rhHDAC 9 (Homo sapiens, UniProt Q9UKV0). Description: Inhibition of recombinant human HDAC isoforms. The format is biochemical. The settings on record: mean ± SD, triplicate per plate, min two plates; read-out: ED50 rhHDAC 9.
Source text: as §1

Experiment [10] concerns the target T2, rhHDAC 6 (Homo sapiens, UniProt Q9UBN7).
T2 sequence (Q9UBN7 1-1215): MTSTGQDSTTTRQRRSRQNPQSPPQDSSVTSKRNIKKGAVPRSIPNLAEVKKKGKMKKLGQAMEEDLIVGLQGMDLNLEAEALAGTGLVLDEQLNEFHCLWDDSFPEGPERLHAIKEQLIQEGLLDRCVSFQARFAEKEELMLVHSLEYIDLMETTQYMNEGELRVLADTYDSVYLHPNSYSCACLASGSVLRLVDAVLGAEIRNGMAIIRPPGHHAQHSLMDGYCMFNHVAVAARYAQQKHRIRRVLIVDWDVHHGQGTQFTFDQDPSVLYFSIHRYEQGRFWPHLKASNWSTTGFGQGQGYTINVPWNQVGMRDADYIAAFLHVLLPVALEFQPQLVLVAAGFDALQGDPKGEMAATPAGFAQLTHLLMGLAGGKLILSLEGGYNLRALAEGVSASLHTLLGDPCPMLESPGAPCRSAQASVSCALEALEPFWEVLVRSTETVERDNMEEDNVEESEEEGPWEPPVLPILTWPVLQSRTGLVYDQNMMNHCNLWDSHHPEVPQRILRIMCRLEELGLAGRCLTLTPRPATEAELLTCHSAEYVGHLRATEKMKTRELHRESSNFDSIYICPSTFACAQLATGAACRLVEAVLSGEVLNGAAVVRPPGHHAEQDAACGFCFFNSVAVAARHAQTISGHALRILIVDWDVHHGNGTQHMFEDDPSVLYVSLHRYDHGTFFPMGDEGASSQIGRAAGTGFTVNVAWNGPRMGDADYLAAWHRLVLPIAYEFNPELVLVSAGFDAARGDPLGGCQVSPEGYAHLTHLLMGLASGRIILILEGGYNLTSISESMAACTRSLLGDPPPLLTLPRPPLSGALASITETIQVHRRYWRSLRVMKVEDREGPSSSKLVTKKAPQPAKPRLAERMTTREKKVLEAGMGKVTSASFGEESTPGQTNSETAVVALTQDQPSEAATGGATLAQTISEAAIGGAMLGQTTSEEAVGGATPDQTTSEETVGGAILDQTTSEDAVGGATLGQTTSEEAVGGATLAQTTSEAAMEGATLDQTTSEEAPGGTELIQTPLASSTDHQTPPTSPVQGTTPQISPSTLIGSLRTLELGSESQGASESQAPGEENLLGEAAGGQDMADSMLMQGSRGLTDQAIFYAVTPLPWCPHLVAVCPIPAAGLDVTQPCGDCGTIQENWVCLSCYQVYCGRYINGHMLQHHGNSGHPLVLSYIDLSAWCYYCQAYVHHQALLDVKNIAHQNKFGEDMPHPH
Description: Inhibition of recombinant human HDAC isoforms. The format is biochemical. As to conditions: mean ± SD, triplicate per plate, min two plates; read-out: ED50 rhHDAC 6.
Source text: as §1

The test system of experiment [11] is HDAC (FDL_HELA). Nature of the experiment: Histone deacetylase activity in HeLa cell lysates (fluorescent assay kit). The format is biochemical, Human. As to conditions: lysed HeLa cells; read-out: HDAC (FDL_HELA) IC50 ± SD. How it is done:
as §1
[24] Histone deacetylase activity was determined in lysed Human cervix epithelial cancer HeLa cells. To determine the IC50 of test compound a commercially available fluorescent assay kit was used employing an acetylated enzyme substrate.[23]

Experiment [12] deals with Trypanosoma brucei (BSF). Description: Growth inhibition of cultured bloodstream form T. brucei. The format is cell-based, Trypanosoma brucei (strain 427). The settings on record: for IC50 / IC90: Trypanosoma brucei, cultured bloodstream form, strain 427, triplicate; for IC50: read-out: Trypanosoma brucei (BSF) IC50 ± SD; for IC90: read-out: Trypanosoma brucei (BSF) IC90 ± SD. How it is done:
Treatment of parasites with micromolar levels of these inhibitors could result in cell death within 4 h (Fig. 1).
[30] Growth inhibitory properties against cultured bloodstream form T. brucei were determined as described previously.[29] Experiments were performed in triplicate and data are presented as ±SD.

For experiment [13], the target named is T3, rhHDAC 7 (Homo sapiens, UniProt Q8WUI4).
T3 sequence (Q8WUI4 1-952): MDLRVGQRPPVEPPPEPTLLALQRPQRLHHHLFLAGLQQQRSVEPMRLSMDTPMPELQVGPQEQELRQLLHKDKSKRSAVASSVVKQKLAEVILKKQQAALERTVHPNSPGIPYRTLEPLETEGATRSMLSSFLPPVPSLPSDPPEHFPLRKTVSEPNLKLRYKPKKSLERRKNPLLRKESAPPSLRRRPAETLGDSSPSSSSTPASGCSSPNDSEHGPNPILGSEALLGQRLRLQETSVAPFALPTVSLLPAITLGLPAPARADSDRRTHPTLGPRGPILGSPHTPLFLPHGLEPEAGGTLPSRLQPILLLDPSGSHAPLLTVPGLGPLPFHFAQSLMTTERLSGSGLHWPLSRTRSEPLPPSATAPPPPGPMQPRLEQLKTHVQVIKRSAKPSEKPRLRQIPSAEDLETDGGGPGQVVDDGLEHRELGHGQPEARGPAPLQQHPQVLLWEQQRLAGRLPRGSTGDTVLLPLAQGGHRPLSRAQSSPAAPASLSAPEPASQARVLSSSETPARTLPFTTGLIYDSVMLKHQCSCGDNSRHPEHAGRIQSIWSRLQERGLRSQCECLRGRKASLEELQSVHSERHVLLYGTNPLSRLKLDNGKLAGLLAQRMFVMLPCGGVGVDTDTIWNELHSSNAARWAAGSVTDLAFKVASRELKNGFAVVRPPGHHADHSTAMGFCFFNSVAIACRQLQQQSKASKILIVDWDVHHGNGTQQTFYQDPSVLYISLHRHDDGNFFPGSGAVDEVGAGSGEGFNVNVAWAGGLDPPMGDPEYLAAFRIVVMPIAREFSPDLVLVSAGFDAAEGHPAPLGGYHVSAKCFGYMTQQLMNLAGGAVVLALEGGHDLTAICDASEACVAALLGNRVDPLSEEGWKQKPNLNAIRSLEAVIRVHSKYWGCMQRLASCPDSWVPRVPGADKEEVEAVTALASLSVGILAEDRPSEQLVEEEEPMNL
Description: Inhibition of recombinant human HDAC isoforms. As to conditions: mean ± SD, triplicate per plate, min two plates; read-out: ED50 rhHDAC 7. The format is biochemical.
Source text: as §1

rhHDAC 3, sequence (O15379 whole entry, canonical isoform): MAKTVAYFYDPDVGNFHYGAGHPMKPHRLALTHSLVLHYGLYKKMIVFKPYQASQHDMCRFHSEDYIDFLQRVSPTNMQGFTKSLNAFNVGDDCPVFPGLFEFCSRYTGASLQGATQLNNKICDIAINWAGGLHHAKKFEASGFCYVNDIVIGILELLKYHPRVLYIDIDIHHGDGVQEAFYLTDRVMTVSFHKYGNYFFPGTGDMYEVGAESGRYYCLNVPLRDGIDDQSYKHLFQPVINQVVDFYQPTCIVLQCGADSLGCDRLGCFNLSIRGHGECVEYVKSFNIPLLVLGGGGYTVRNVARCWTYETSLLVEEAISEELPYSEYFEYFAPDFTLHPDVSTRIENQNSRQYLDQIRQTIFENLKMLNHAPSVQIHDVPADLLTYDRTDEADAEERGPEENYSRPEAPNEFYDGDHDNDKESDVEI
rhHDAC 3, sequence (Q9Y618 395-489 partner limits assumed): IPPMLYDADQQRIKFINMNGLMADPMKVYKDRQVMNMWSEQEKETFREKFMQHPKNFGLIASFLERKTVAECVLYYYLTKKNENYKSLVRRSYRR
rhHDAC 1, sequence (Q13547 whole entry, canonical isoform): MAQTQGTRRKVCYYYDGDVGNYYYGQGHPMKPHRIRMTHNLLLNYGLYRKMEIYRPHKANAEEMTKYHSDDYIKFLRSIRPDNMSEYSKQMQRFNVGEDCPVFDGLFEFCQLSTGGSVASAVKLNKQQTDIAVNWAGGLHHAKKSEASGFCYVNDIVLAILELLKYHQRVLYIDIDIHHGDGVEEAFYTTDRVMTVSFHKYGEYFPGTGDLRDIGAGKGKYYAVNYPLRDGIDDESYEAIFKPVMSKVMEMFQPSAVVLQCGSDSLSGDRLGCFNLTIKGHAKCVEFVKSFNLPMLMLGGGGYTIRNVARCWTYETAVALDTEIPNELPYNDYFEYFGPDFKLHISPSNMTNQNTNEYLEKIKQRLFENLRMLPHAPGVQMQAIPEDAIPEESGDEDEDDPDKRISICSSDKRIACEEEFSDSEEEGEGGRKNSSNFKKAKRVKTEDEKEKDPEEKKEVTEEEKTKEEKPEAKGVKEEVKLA
rhHDAC 4, sequence (P56524 whole entry, canonical isoform): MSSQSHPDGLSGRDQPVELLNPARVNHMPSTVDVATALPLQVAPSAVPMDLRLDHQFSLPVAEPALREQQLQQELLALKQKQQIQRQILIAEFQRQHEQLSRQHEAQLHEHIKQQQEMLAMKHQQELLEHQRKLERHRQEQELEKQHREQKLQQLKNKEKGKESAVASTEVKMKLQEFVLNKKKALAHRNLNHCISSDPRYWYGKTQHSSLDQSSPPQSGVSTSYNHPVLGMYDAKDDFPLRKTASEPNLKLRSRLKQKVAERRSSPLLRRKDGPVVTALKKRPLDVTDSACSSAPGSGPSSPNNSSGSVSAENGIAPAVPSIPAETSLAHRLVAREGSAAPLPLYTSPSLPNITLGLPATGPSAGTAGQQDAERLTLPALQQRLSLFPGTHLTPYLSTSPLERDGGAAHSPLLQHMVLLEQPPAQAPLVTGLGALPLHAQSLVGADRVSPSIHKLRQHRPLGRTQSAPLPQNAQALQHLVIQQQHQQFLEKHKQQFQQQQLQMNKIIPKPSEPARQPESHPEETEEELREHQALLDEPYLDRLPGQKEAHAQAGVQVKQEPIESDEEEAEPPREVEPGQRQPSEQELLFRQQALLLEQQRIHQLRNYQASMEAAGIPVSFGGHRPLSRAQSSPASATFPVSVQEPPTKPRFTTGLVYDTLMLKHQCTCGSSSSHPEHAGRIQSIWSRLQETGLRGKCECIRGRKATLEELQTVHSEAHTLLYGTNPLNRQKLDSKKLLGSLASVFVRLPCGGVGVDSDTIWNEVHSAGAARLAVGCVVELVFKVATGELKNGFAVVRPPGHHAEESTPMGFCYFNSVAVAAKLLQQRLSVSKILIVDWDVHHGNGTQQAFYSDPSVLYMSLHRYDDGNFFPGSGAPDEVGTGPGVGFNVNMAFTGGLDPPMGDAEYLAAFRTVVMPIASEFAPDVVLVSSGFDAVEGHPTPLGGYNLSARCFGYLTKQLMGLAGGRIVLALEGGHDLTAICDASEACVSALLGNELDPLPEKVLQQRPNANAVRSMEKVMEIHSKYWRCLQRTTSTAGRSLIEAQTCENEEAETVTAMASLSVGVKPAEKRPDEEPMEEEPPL
rhHDAC 9, sequence (Q9UKV0 whole entry, canonical isoform): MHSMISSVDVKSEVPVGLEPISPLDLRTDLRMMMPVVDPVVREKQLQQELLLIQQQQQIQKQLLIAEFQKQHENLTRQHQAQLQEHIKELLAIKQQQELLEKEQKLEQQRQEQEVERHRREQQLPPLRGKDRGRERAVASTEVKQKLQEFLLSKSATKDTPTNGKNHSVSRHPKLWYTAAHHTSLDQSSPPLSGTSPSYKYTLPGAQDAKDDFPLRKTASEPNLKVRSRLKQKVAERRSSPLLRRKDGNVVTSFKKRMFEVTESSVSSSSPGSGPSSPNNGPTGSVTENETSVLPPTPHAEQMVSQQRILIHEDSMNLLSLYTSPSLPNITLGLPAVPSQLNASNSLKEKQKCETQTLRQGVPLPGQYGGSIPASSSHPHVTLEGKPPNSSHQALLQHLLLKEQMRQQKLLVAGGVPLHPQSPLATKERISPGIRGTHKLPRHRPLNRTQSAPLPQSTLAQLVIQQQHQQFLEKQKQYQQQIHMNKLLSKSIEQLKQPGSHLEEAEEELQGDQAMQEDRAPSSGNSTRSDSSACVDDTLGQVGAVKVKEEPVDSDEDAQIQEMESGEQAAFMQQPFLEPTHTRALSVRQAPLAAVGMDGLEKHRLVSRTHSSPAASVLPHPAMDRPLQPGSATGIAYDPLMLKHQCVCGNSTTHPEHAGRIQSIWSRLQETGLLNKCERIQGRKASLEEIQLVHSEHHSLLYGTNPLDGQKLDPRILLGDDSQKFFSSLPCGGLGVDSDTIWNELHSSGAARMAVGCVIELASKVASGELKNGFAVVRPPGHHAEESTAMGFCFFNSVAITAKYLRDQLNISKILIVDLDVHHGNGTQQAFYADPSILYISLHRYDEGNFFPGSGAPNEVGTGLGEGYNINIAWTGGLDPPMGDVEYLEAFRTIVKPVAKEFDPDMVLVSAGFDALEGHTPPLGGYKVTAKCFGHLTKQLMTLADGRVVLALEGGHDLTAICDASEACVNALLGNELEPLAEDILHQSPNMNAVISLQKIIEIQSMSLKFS
rhHDAC 2, sequence (Q92769 whole entry, canonical isoform): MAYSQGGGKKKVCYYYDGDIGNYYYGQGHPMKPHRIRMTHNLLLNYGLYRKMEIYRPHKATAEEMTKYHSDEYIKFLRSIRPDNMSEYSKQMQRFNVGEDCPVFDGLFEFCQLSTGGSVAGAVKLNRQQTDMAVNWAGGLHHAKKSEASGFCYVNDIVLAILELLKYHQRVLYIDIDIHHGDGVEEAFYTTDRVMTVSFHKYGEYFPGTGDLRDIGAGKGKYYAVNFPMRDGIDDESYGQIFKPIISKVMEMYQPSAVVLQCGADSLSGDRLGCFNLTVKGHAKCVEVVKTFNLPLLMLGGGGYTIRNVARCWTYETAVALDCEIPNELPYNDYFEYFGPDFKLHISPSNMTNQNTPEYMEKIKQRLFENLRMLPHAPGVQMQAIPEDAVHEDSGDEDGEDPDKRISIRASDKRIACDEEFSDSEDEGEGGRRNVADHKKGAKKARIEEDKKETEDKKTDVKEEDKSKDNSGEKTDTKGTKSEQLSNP

Take `CC(/C=C/C(=O)NO)=C\[C@@H](C)C(=O)c1ccc(N(C)C)cc1` [Trichostatin A]: the “inhibition of DAC3 activity” value in experiment [1] is given as “inhibitor”. In experiment [2], the “inhibition of DAC1 activity” value is “inhibitor”. Further, in experiment [3], the “growth of bloodstream form T. brucei” value is “suppresses growth”.

As to `COc1ccc(N2CCN(S(=O)(=O)c3cccc(/C=C/C(=O)NO)c3)CC2)cc1` [Compound 10], the IC50 in experiment [4] was 955 ± 166 nM; in experiment [5], 76 ± 6 nM; in experiment [6], 870 nM; in [7], 295 ± 290 nM; in experiment [8] it was 36 ± 0.7 nM; in experiment [9], 1180 nM. Moreover, the IC50 in experiment [10] amounted to 107 ± 13 nM; in [11], 212 ± 112 nM; in [12], 156 ± 3 nM. The IC90 in experiment [12] was determined as 224 ± 3 nM.

`O=C(/C=C/c1nc2ccccc2o1)NO` [Compound 20]: the IC50 turned out to be 573 ± 30 nM in [4]; 134 ± 6 nM in experiment [5]; 373 ± 73 nM in experiment [6]; 97 ± 0.6 nM in [7]; 554 ± 44 nM in experiment [8]; 286 ± 8 nM in [13]. Moreover, the IC50 in experiment [9] came to 278 ± 65 nM; in experiment [10], 68 ± 13 nM; in [11], 48 ± 28 nM; in experiment [12] it was 1540 ± 60 nM. For the same molecule, the IC90 in [12] is 2180 ± 180 nM. The “fold less active against T. brucei” value in experiment [12] (relative to heterocyclic compounds 9 and 16) is listed as 5- to 10 fold.

For the molecule `O=C(/C=C/c1cccc(S(=O)(=O)Nc2cccc(F)c2)c1)NO` [Compound 15], the IC50 in experiment [4] is 211 ± 42 nM; in experiment [5], 44 ± 0.1 nM; in experiment [6], 65 ± 20 nM; in experiment [7] it was 89 ± 32 nM; in experiment [8], 221 ± 141 nM; in experiment [13], 216 ± 133 nM. For the same molecule, the IC50 in experiment [9] was found to be 109 ± 56 nM; in experiment [10], 35 ± 16 nM; in [11], 20 ± 4 nM; in experiment [12] it was 343 ± 17 nM. Further, in experiment [12], the IC90 is 710 ± 17 nM.

In the case of `COc1ccc(NS(=O)(=O)c2cccc(/C=C/C(=O)NO)c2)cc1` [Compound 18], the IC50 in experiment [4] is 167 ± 72 nM; in experiment [5] it was 19 ± 1 nM; in experiment [6], 33 ± 1 nM; in experiment [7], 23 ± 2 nM; in experiment [8] it was 105 ± 64 nM; in [13], 42 ± 22 nM. In addition, the IC50 in [9] worked out at 26 ± 3 nM; in experiment [10] it was 36 ± 3 nM; in experiment [11], 13 ± 5 nM; in experiment [12], 606 ± 81 nM. Also, the IC90 in experiment [12] stood at 956 ± 35 nM.
